Laboratory results published in article PMC12811501, “A plant-derived antimicrobial peptide with multiple mechanisms of action exhibiting antibacterial and antibiofilm activities comparable to or superior to polymyxin B” (Current Research in Microbial Sciences, 2025).
Residues, ends and D or L forms follow the SMILES beside them. No end group written: not given here.

What was measured:
[1] = system: Acinetobacter baumannii (ATCC 17978); format: cell-based; conditions: short derivatives; 20 mM PPB at pH 7.4
Excerpt: (§1) The Gram-positive strains Enterococcus faecalis (ATCC 29212), Staphylococcus aureus (HNCMO112011), and Listeria monocytogenes (ATCC 19111), and the Gram-negative strains Pseudomonas aeruginosa (ATCC 27853), Escherichia coli (ATCC 8739), Salmonella enterica (ATCC 13076), Klebsiella pneumoniae (NCTC 13440), and Acinetobacter baumannii (ATCC 17978) were obtained from ATCC (United States) and NCTC (National Collection of Type Cultures – England).
(§2) Minimal bactericidal concentrations (MBC) of peptides and reference antibiotics were determined in 20 mM potassium phosphate buffer (PPB, pH 7.4) and Mueller–Hinton broth (MHB) as described by ([Jenei et al., 2020]). Briefly, bacterial cultures were grown to mid-log phase, washed, adjusted to OD₆₀₀ = 0.1 (∼10⁷ CFU/mL), added 10 μl of it into 100 μl mixture and incubated in 96-well plates with 2-fold serial dilutions of peptides or antibiotics. After incubation at 37 °C with shaking, bacterial viability was assessed by plating 5 μL aliquots on LB agar. MBC was defined as the lowest concentration yielding no colony growth. Experiments were done at least in three biological replicates.
(§3) NCR169, its oxidized form (NCR169ox), and its variant in which the four cysteines were replaced with serines (NCR169-C9,15,28,33/S) (Table 1.A) were chemically synthesized with C-terminal amidation. These peptides were tested for antimicrobial activity against a panel of ESKAPE pathogens - Enterococcus faecalis, Staphylococcus aureus, Klebsiella pneumoniae, Acinetobacter baumannii, Pseudomonas aeruginosa, E. coli - as well as Listeria monocytogenes and Salmonella enterica. Peptides were applied to 10^6 log-phase bacterial cultures in a two-fold dilution series (25 - 0.1 µM) in potassium phosphate buffer (PPB) at pH 7.4. After three hours of incubation, 5 µl of each treatment was plated on LB agar and incubated overnight at 37 °C to assess bacterial survival. Minimal bactericidal concentrations (MBCs), defined as the lowest concentration eliminating bacterial growth, are presented in Table 1B.

[2] = system: Staphylococcus aureus (HNCMO112011); format: cell-based; conditions: for MBC S. a.: short derivatives, 20 mM PPB at pH 7.4
Excerpt: as §1, §2, §3

[3] = system: Listeria monocytogenes (ATCC 19111); test: Minimal bactericidal concentration (MBC) assay; format: cell-based; conditions: short derivatives; 20 mM PPB at pH 7.4
Excerpt: as §1, §2, §3

[4] = system: Salmonella enterica (ATCC 13076); test: Minimal bactericidal concentration (MBC) assay; format: cell-based; conditions: short derivatives; 20 mM PPB at pH 7.4
Excerpt: as §1, §2, §3

[5] = system: Klebsiella pneumoniae (NCTC 13440); test: Minimal bactericidal concentration (MBC) assay; format: cell-based; conditions: short derivatives; 20 mM PPB at pH 7.4
Excerpt: as §1, §2, §3

[6] = system: Enterococcus faecalis (ATCC 29212); test: Minimal bactericidal concentration (MBC) assay; format: cell-based
Excerpt: as §1, §2, §3

[7] = system: Pseudomonas aeruginosa (ATCC 27853); test: Minimal bactericidal concentration (MBC) assay; format: cell-based; conditions: short derivatives; 20 mM PPB at pH 7.4
Excerpt: as §1, §2, §3

[8] = format: physicochemical; conditions: pH 7.4
[9] = Peptide-lipid overlay assay; format: binding; conditions: 2 μM peptide, 1 h
Procedure: Membrane lipid strips (Echelon Biosciences, P-6002) were incubated for 1 h in blocking solution (3 % BSA in TBS-Tween 0.1 %) with gentle agitation followed by four 8-min washes in TBS-Tween. Then, strips were incubated with 2 μM of NCR169C17–38 in blocking solution for 1 h. Not bound peptide was washed off by four 8-min washes in TBS-Tween. The bound StrepII-tagged peptide was then detected on the strips using the same procedure described for the dot blot, except that chemiluminescence was visualized with an iBright™ FL1500 Imaging System (Invitrogen).
As shown above, NCR169C17–38 causes rapid damage to bacterial membranes. Since membrane structure is largely determined by its lipid composition, we next investigated the ability of NCR169C17–38-StrepII to bind membrane lipids in vitro using a peptide-lipid overlay assay (Supplementary Fig. 3.A). NCR169C17–38-StrepII bound to several anionic lipids, including phosphoinositides, phosphatidic acid, phosphatidylserine, and cardiolipin - a major constituent of bacterial membranes.

E. coli = test: Antimicrobial test after heat stress or storage of the peptide; format: cell-based, Escherichia coli; conditions: then tested against E. coli, 3.1 µM = lowest dilution tested
Procedure: (B) NCR169C17-38-StrepII remains active against E. coli even at 3.1 µM after 20 minutes of treatment at 80 °C or incubation at room temperature for 24 hrs. Bacterial viability was assessed by plating 5 µL aliquots after treatment on LB agar. Only non-treated control cells could grow.

[10] = 25, 12.5, 6.3, 3.1 µM in PPB, overnight at room temperature or 80 °C for 20 min; StrepII detection
Procedure: For heat stability test serial dilutions of the NCR169C17–38-StrepII peptide were prepared in PPB at concentrations of 25, 12.5, 6.3, 3.1 µM, following the same protocol used in the antimicrobial assay. One set of samples was incubated overnight at 37 °C with shaking, another set was subjected to heat stress at 80 °C for 20 min, while one set was freshly prepared. Dot-blot analysis was performed by spotting 5 µl of each peptide solution onto a 0.22 µm nitrocellulose membrane (Bio-Rad). Detection of the StrepII-tagged peptide was carried out using the Precision Protein StrepTactin-HRP conjugate (Bio-Rad), following the manufacturer’s recommended protocol. Signal development was achieved using the Clarity Western ECL Substrate (Bio-Rad), with the membrane incubated for 5 min at room temperature, followed by exposure to Fuji Medical X-ray film for visualization.
Peptide dilutions (25, 12.5, 6.3, and 3.1 µM) in PPB were either incubated overnight at room temperature (RT) or heated at 80 °C for 20 min.

[11] = system: Escherichia coli (ATCC 8739); format: cell-based; conditions: ATCC 8739, 3 h
Excerpt: as §1
as §2, with “Experiments were done at least in three biological replicates.” left out
Three biological replicates were treated at OD600 = 0.2 with a final concentration of 1.6 µM NCR169C17–38 peptide for 20 min, while the control samples were treated with the same amount of water for 20 min. […] Quality and quantity was detected using 2200 TapeStation (Agilent) and Qubit RNA BR Assay […]

[12] = short derivatives, 20 mM PPB at pH 7.4

Compound	MBC S. a. [2]	MBC L. m. [3]	MBC S. e. [4]	MBC K. p. [5]	MBC E. f. [6, 12]	MBC P. a. [7]	further results
KCVENVCVLWYK [NCR169_27–38, shorter C-terminal fragment of NCR169C17–38]	- (lack of bactericidal activity up to 25 µM)	- (lack of bactericidal activity up to 25 µM)	- (lack of bactericidal activity up to 25 µM)	- (lack of bactericidal activity up to 25 µM)	- (lack of bactericidal activity up to 25 µM)	- (lack of bactericidal activity up to 25 µM)	MBC A. b. [1]: - (lack of bactericidal activity up to 25 µM)
EDIGHIKYCGIVDDCYKSKKPLFKIWKCVENVCVLWYK (disulfide) (disulfide (positions not given here); also: disulfide pairing not given here) [NCR169ox, oxidized form of NCR169]							solubility / visible turbidity upon peptide addition [8]: no visible turbidity; MBC E. f. ([6]; PPB pH 5.8, 3 h treatment, plated on LB agar): - (lack of bactericidal activity up to 25 µM); MBC E. f. ([6]; PPB pH 7.4, 3 h treatment, 10^6 log-phase bacteria, two-fold dilutions 25-0.1 µM, plated on LB agar, * = best MBC value measured, more than two fold dilution differences in replicates): - (lack of bactericidal activity up to 25 µM)
PLFKIWKCVENVCVLWYK [NCR169_21–38, shorter C-terminal fragment of NCR169C17–38]	- (lack of bactericidal activity up to 25 µM)	- (lack of bactericidal activity up to 25 µM)	- (lack of bactericidal activity up to 25 µM)	- (lack of bactericidal activity up to 25 µM)	- (lack of bactericidal activity up to 25 µM)	- (lack of bactericidal activity up to 25 µM)	
CC[C@H](C)[C@H](NC(=O)[C@H](CCCCN)NC(=O)[C@H](Cc1ccccc1)NC(=O)[C@H](CC(C)C)NC(=O)[C@@H]1CCCN1C(=O)[C@H](CCCCN)NC(=O)[C@H](CCCCN)NC(=O)[C@H](CO)NC(=O)[C@@H](N)CCCCN)C(=O)N[C@@H](Cc1c[nH]c2ccccc12)C(=O)N[C@@H](CCCCN)C(=O)N[C@@H](CS)C(=O)N[C@H](C(=O)N[C@@H](CCC(=O)O)C(=O)N[C@@H](CC(N)=O)C(=O)N[C@H](C(=O)N[C@@H](CS)C(=O)N[C@H](C(=O)N[C@@H](CC(C)C)C(=O)N[C@@H](Cc1c[nH]c2ccccc12)C(=O)N[C@@H](Cc1ccc(O)cc1)C(=O)N[C@@H](CCCCN)C(=O)N[C@@H](Cc1c[nH]c2ccccc12)C(=O)N[C@@H](CO)C(=O)N[C@@H](Cc1c[nH]cn1)C(=O)N1CCC[C@H]1C(=O)N[C@@H](CCC(N)=O)C(=O)N[C@@H](Cc1ccccc1)C(=O)N[C@@H](CCC(=O)O)C(=O)N[C@@H](CCCCN)C(N)=O)C(C)C)C(C)C)C(C)C [NCR169C17–38-StrepII] (H-KSKKPLFKIWKCVENVCVLWYKWSHPQFEK-NH2; N-terminus assumed)							binding to phosphatidylglycerol (PG) on lipid strip [9]: did not bind; binding to anionic lipids on lipid strip ([9]; phosphoinositides, phosphatidic acid, phosphatidylserine, cardiolipin): bound; lowest concentration still bactericidal after heat stress (E. coli; peptide in PPB heated 20 minutes at 80 °C): ≤ 3.1 µM; lowest concentration still bactericidal after storage (E. coli; peptide in PPB incubated at room temperature for 24 hrs (overnight)): ≤ 3.1 µM; peptide stability by dot blot [10]: confirmed its stability
YKSKKPLFKIWK-NH2 [NCR169_16–27]							MBC Ec [11]: 6.3 µM; MBC Sa ([2]; HNCMO112011, 3 h): 25 µM
